Measured values published in the supplement of paper PMC10307832.

What was measured:
Test in all cases: relative viability (nuclei count vs DMSO), 5 days (fraction); higher = more cells survive
Elesclomol + Alpelisib = compound: CN(NC(=O)CC(=O)NN(C)C(=S)c1ccccc1)C(=S)c1ccccc1 [Elesclomol] + Cc1nc(NC(=O)N2CCC[C@H]2C(N)=O)sc1-c1ccnc(C(C)(C)C(F)(F)F)c1 [Alpelisib] (partner 2 µM)
Summary of the method: (§1)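 Lung cancer cell lines in 1536-well plates got either a single drug or a fixed anchor-drug dose together with five library-drug doses (not always all listed) in √10 steps, by pin tool, on the day after seeding. Nuclei were counted after 5 days, and relative viability is the treated-to-vehicle ratio of nuclei counts. Values are medians of duplicate plates.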

Elesclomol + Pemetrexed = compound: CN(NC(=O)CC(=O)NN(C)C(=S)c1ccccc1)C(=S)c1ccccc1 [Elesclomol] + Nc1nc2[nH]cc(CCc3ccc(C(=O)N[C@@H](CCC(=O)O)C(=O)O)cc3)c2c(=O)[nH]1 [Pemetrexed] (partner 0.2 µM)
Summary of the method: as §1

Elesclomol + Decitabine = compound: CN(NC(=O)CC(=O)NN(C)C(=S)c1ccccc1)C(=S)c1ccccc1 [Elesclomol] + Nc1ncn([C@H]2C[C@H](O)[C@@H](CO)O2)c(=O)n1 [Decitabine] (partner 2 µM)
Summary of the method: as §1

Elesclomol + Vorinostat = compound: CN(NC(=O)CC(=O)NN(C)C(=S)c1ccccc1)C(=S)c1ccccc1 [Elesclomol] + O=C(CCCCCCC(=O)Nc1ccccc1)NO [Vorinostat] (partner 1 µM)
Summary of the method: as §1

Elesclomol + Olaparib = compound: CN(NC(=O)CC(=O)NN(C)C(=S)c1ccccc1)C(=S)c1ccccc1 [Elesclomol] + O=C(c1cc(Cc2n[nH]c(=O)c3ccccc23)ccc1F)N1CCN(C(=O)C2CC2)CC1 [Olaparib] (partner 8 µM)
Summary of the method: as §1

Cell Line | relative viability (Elesclomol + Alpelisib; first compound 0.003162 µM) | relative viability (Elesclomol + Alpelisib; first compound 0.01 µM) | relative viability (Elesclomol + Alpelisib; first compound 0.03162 µM) | relative viability (Elesclomol + Alpelisib; first compound 0.1 µM) | relative viability (Elesclomol + Pemetrexed; first compound 0.003162 µM) | relative viability (Elesclomol + Pemetrexed; first compound 0.01 µM) | relative viability (Elesclomol + Pemetrexed; first compound 0.03162 µM) | relative viability (Elesclomol + Pemetrexed; first compound 0.1 µM) | relative viability (Elesclomol + Decitabine; first compound 0.003162 µM) | relative viability (Elesclomol + Decitabine; first compound 0.01 µM) | relative viability (Elesclomol + Decitabine; first compound 0.1 µM) | relative viability (Elesclomol + Vorinostat; first compound 0.003162 µM) | relative viability (Elesclomol + Vorinostat; first compound 0.01 µM) | relative viability (Elesclomol + Vorinostat; first compound 0.1 µM) | relative viability (Elesclomol + Olaparib; first compound 0.003162 µM) | relative viability (Elesclomol + Olaparib; first compound 0.01 µM) | relative viability (Elesclomol + Olaparib; first compound 0.03162 µM) | relative viability (Elesclomol + Olaparib; first compound 0.1 µM) | relative viability (Elesclomol + Decitabine; first compound 0.03162 µM) | relative viability (Elesclomol + Vorinostat; first compound 0.03162 µM)
EMC-BAC-2 | 0.743 | 0.649 | 0.616 | 0.389 | 0.486 | 0.399 | 0.525 | 0.426 | 0.933 | 0.804 | 0.408 | 0.486 | 0.231 | 0.22 | 0.445 | 0.345 | 0.381 | 0.288 | – | –
LU99A | 0.479 | – | 0.538 | 0.095 | 0.188 | 0.183 | 0.185 | 0.198 | 0.904 | 0.807 | 0.556 | 0.438 | 0.459 | 0.162 | 0.286 | 0.223 | 0.247 | 0.173 | 0.794 | 0.429
PC-3 [JPC-3] | 0.981 | 0.958 | 1.04 | 0.778 | 1.04 | 0.714 | 0.518 | 0.499 | 0.877 | 0.656 | 0.524 | 0.779 | 0.489 | 0.372 | 1.13 | 0.968 | 0.728 | 0.627 | 0.487 | 0.466
NCI-H596 | 0.437 | 0.472 | 0.458 | 0.213 | 0.523 | 0.452 | 0.489 | 0.211 | 1.03 | 0.903 | 0.241 | 0.632 | 0.577 | 0.219 | 0.672 | 0.608 | 0.503 | 0.258 | 0.664 | 0.485
LCLC-97TM1 | 0.216 | 0.211 | 0.167 | 0.104 | 0.159 | 0.133 | 0.164 | 0.0782 | 0.258 | 0.198 | 0.131 | 0.724 | 0.283 | 0.0661 | 0.402 | 0.295 | 0.379 | 0.0862 | 0.211 | 0.707
NCI-H1993 | 0.755 | 0.662 | 0.666 | 0.52 | 0.707 | 0.6 | 0.486 | 0.366 | 0.613 | 0.505 | 0.389 | 0.897 | 0.817 | 0.288 | 0.967 | 0.789 | 0.516 | 0.393 | 0.477 | 0.469
HARA | 0.803 | 0.687 | 0.944 | 0.17 | 0.211 | 0.293 | 0.183 | 0.141 | 0.562 | 0.584 | 0.158 | 0.607 | 0.542 | 0.163 | 0.774 | 0.524 | 0.417 | 0.36 | 0.271 | 0.616
NCI-H460 | 0.434 | 0.0761 | 0.0128 | 0.0117 | 0.0667 | 0.0599 | 0.0708 | 0.0235 | 0.433 | 0.396 | 0.0381 | 0.712 | 0.508 | 0.018 | 0.421 | 0.251 | 0.194 | 0.0303 | 0.107 | 0.275
